Experimental data: patent US4892875A, “Substituted heterocyclylalkyl esters of 1,4-dihydropyridine-3,5-dicarboxylic acids” (Takeda Chemical Industries, Ltd., priority 1982, dated 1990)

Tested on: spontaneously hypertensive rats
Test: Antihypertensive action (systolic blood pressure, caudal artery) in male spontaneously hypertensive rats
Format: in vivo, rat
Conditions: 10 mg/kg oral; for Change in blood pressure 1 hr. after treatment / Change in blood pressure 5 hrs. after treatment: after minus before medication, * P < 0.05 vs control; for Duration of antihypertensive effect: measured 1, 5, 8 and 24 hours after administration
Protocol: Male spontaneously hypertensive rats aged 10 to 11 weeks were used (in groups of 3 to 6 individuals). […] Each test compound was suspended in a 5% solution of gum arabic and orally administered. The dosage was 10 mg/kg for all compounds. Animals in a control group was given the above solution of gum arabic only.

Compound: 2-[4-(4-fluorophenyl)-1-piperazinyl]ethyl methyl 4-(3-chlorophenyl)-2,6-dimethyl-1,4-dihydropyridine-3,5-dicarboxylate [Example 42]
- Change in blood pressure 1 hr. after treatment: -25 mmHg
- Change in blood pressure 5 hrs. after treatment: -35 mmHg
- Duration of antihypertensive effect: 8 to 24 h

Compound: CCOC(=O)C1=C(C)NC(C)=C(C(=O)OCCN2CCN(C(c3ccccc3)c3ccccc3)CC2)C1c1cccc([N+](=O)[O-])c1 (stereo not drawn) [Example 2, 2-(4-benzhydryl-1-piperazinyl)ethyl ethyl 2,6-dimethyl-4-(3-nitrophenyl)-1,4-dihydropyridine-3,5-dicarboxylate]
- Change in blood pressure 1 hr. after treatment: -99 mmHg
- Change in blood pressure 5 hrs. after treatment: -101 mmHg
- Duration of antihypertensive effect: 8 to 24 h

Compound: CCOC(=O)C1=C(C)NC(C)=C(C(=O)OCCN2CCN(C(c3ccccc3)c3ccccc3)CC2)C1c1cccc(Cl)c1Cl (stereo not drawn) [Example 7, 2-(4-benzhydryl-1-piperazinyl)ethyl ethyl 4-(2,3-dichlorophenyl)-2,6-dimethyl-1,4-dihydropyridine-3,5-dicarboxylate]
- Change in blood pressure 1 hr. after treatment: -59 mmHg
- Change in blood pressure 5 hrs. after treatment: -79 mmHg
- Duration of antihypertensive effect: > 24 h

Compound: COC(=O)C1=C(C)NC(C)=C(C(=O)OCCN2CCN(C(c3ccc(C)cc3)c3ccc(C)cc3)CC2)C1c1cccc([N+](=O)[O-])c1 (stereo not drawn) [Example 9, 2-[4-(4,4'-dimethylbenzhydryl)-1-piperazinyl]ethyl methyl 2,6-dimethyl-4-(3-nitrophenyl)-1,4-dihydropyridine-3,5-dicarboxylate]
- Change in blood pressure 1 hr. after treatment: -96 mmHg
- Change in blood pressure 5 hrs. after treatment: -98 mmHg
- Duration of antihypertensive effect: > 24 h

Compound: COC(=O)C1=C(C)NC(C)=C(C(=O)OCCN2CCN(C(c3ccc(Cl)cc3)c3ccc(Cl)cc3)CC2)C1c1cccc([N+](=O)[O-])c1 (stereo not drawn) [Example 12, 2-[4-(4,4'-dichlorobenzhydryl)-1-piperazinyl]ethyl methyl 2,6-dimethyl-4-(3-nitrophenyl)-1,4-dihydropyridine-3,5-dicarboxylate]
- Change in blood pressure 1 hr. after treatment: -85 mmHg
- Change in blood pressure 5 hrs. after treatment: -87 mmHg
- Duration of antihypertensive effect: > 24 h

Compound: COC(=O)C1=C(C)NC(C)=C(C(=O)OCCN2CCN(C(c3ccc(F)cc3)c3ccc(F)cc3)CC2)C1c1cccc(Cl)c1Cl (stereo not drawn) [Example 13, 2-[4-(4,4'-difluorobenzhydryl)-1-piperazinyl]ethyl methyl 4-(2,3-dichlorophenyl)-2,6-dimethyl-1,4-dihydropyridine-3,5-dicarboxylate]
- Change in blood pressure 1 hr. after treatment: -34 mmHg
- Change in blood pressure 5 hrs. after treatment: -31 mmHg
- Duration of antihypertensive effect: 8 to 24 h

Compound: COC(=O)C1=C(C)NC(C)=C(C(=O)OCCN2CCN(c3ccc(F)cc3)CC2)C1c1cccc([N+](=O)[O-])c1.Cl (stereo not drawn) [Example 16, 2-[4-(4-fluorophenyl)-1-piperazinyl]ethyl methyl 2,6-dimethyl-4-(3-nitrophenyl)-1,4-dihydropyridine-3,5-dicarboxylate hydrochloride]
- Change in blood pressure 1 hr. after treatment: -51 mmHg
- Change in blood pressure 5 hrs. after treatment: -45 mmHg
- Duration of antihypertensive effect: 8 to 24 h

Compound: COC(=O)C1=C(C)NC(C)=C(C(=O)OCCN2CCN(c3cccc(Cl)c3)CC2)C1c1cccc([N+](=O)[O-])c1 (stereo not drawn) [Example 17, 2-[4-(3-chlorophenyl)-1-piperazinyl]ethyl methyl 2,6-dimethyl-4-(3-nitrophenyl)-1,4-dihydropyridine-3,5-dicarboxylate]
- Change in blood pressure 1 hr. after treatment: -77 mmHg
- Change in blood pressure 5 hrs. after treatment: -46 mmHg
- Duration of antihypertensive effect: 8 to 24 h

Compound: CCOC(=O)C1=C(C)NC(C)=C(C(=O)OCCN2CCN(C(c3ccc(C)cc3)c3ccc(C)cc3)CC2)C1c1cccc(Cl)c1Cl (stereo not drawn) [Example 24, 2-[4-(4,4'-dimethylbenzhydryl)-1-piperazinyl]ethyl ethyl 4-(2,3-dichlorophenyl)-2,6-dimethyl-1,4-dihydropyridine-3,5-dicarboxylate]
- Change in blood pressure 1 hr. after treatment: -49 mmHg
- Change in blood pressure 5 hrs. after treatment: -30 mmHg
- Duration of antihypertensive effect: ca. 8 hrs.

Compound: CCOC(=O)C1=C(C)NC(C)=C(C(=O)OCCN2CCN(C(c3ccccc3)c3ccccc3)CC2)C1c1cccc(Cl)c1 (stereo not drawn) [Example 28, 2-(4-benzhydryl-1-piperazinyl)ethyl ethyl 4-(3-chlorophenyl)-2,6-dimethyl-1,4-dihydropyridine-3,5-dicarboxylate]
- Change in blood pressure 1 hr. after treatment: -93 mmHg
- Change in blood pressure 5 hrs. after treatment: -75 mmHg
- Duration of antihypertensive effect: 8 to 24 h

Compound: COCCOC(=O)C1=C(C)NC(C)=C(C(=O)OCCN2CCN(C(c3ccccc3)c3ccccc3)CC2)C1c1cccc([N+](=O)[O-])c1 (stereo not drawn) [Example 30, 2-(4-benzhydryl-1-piperazinyl)ethyl 2-methoxyethyl 2,6-dimethyl-4-(3-nitrophenyl)-1,4-dihydropyridine-3,5-dicarboxylate]
- Change in blood pressure 1 hr. after treatment: -48 mmHg
- Change in blood pressure 5 hrs. after treatment: -31 mmHg
- Duration of antihypertensive effect: 8 to 24 h

Compound: CCOC(=O)C1=C(C)NC(C)=C(C(=O)OCCN2CCN(C(c3ccc(C)cc3)c3ccc(C)cc3)CC2)C1c1cccc(C(F)(F)F)c1 (stereo not drawn) [Example 32, 2-[4-(4,4'-dimethylbenzhydryl)-1-piperazinyl]ethyl ethyl 2,6-dimethyl-4-(3-trifluoromethylphenyl)-1,4-dihydropyridine-3,5-dicarboxylate]
- Change in blood pressure 1 hr. after treatment: -46 mmHg
- Change in blood pressure 5 hrs. after treatment: -48 mmHg
- Duration of antihypertensive effect: 8 to 24 h

Compound: CCOC(=O)C1=C(C)NC(C)=C(C(=O)OCCN2CCN(C(c3ccc(C)cc3)c3ccc(C)cc3)CC2)C1c1cccc(Cl)c1 (stereo not drawn) [Example 33, 2-[4-(4,4'-dimethylbenzhydryl)-1-piperazinyl]ethyl ethyl 4-(3-chlorophenyl)-2,6-dimethyl-1,4-dihydropyridine-3,5-dicarboxylate]
- Change in blood pressure 1 hr. after treatment: -51 mmHg
- Change in blood pressure 5 hrs. after treatment: -60 mmHg
- Duration of antihypertensive effect: 8 to 24 h

Compound: COC(=O)C1=C(C)NC(C)=C(C(=O)OCCCN2CCN(C(c3ccccc3)c3ccccc3)CC2)C1c1cccc(Cl)c1 (stereo not drawn) [Example 38, 3-(4-benzhydryl-1-piperazinyl)propyl methyl 4-(3-chlorophenyl)-2,6-dimethyl-1,4-dihydropyridine-3,5-dicarboxylate]
- Change in blood pressure 1 hr. after treatment: -50 mmHg
- Change in blood pressure 5 hrs. after treatment: -42 mmHg
- Duration of antihypertensive effect: 8 to 24 h

Compound: CCOC(=O)C1=C(C)NC(C)=C(C(=O)OCCN2CCN(c3ccc(F)cc3)CC2)C1c1cccc([N+](=O)[O-])c1 (stereo not drawn) [Example 41, ethyl 2-[4-(4-fluorophenyl)-1-piperazinyl]ethyl 2,6-dimethyl-4-(3-nitrophenyl)-1,4-dihydropyridine-3,5-dicarboxylate]
- Change in blood pressure 1 hr. after treatment: -55 mmHg
- Change in blood pressure 5 hrs. after treatment: -67 mmHg
- Duration of antihypertensive effect: ca. 24 hrs.

Compound: COC(=O)C1=C(C)NC(C)=C(C(=O)OCCN2CCN(c3ccc(F)cc3)CC2)C1c1cccc(Cl)c1Cl (stereo not drawn) [Example 43, 2-[4-(4-fluorophenyl)-1-piperazinyl]ethyl methyl 4-(2,3-dichlorophenyl)-2,6-dimethyl-1,4-dihydropyridine-3,5-dicarboxylate]
- Change in blood pressure 1 hr. after treatment: -54 mmHg
- Change in blood pressure 5 hrs. after treatment: -44 mmHg
- Duration of antihypertensive effect: 8 to 24 h

Compound: COC(=O)C1=C(C)NC(C)=C(C(=O)OCCN2CCN(c3ccccc3Cl)CC2)C1c1cccc([N+](=O)[O-])c1 (stereo not drawn) [Example 44, 2-[4-(2-chlorophenyl)-1-piperazinyl]ethyl methyl 2,6-dimethyl-4-(3-nitrophenyl)-1,4-dihydropyridine-3,5-dicarboxylate]
- Change in blood pressure 1 hr. after treatment: -44 mmHg
- Change in blood pressure 5 hrs. after treatment: -22 mmHg
- Duration of antihypertensive effect: 8 to 24 h

Compound: COC(=O)C1=C(C)NC(C)=C(C(=O)OCCN2CCN(c3ccc(Cl)cc3)CC2)C1c1cccc([N+](=O)[O-])c1 (stereo not drawn) [Example 45, 2-[4-(4-chlorophenyl)-1-piperazinyl]ethyl methyl 2,6-dimethyl-4-(3-nitrophenyl)-1,4-dihydropyridine-3,5-dicarboxylate]
- Change in blood pressure 1 hr. after treatment: -57 mmHg
- Change in blood pressure 5 hrs. after treatment: -42 mmHg
- Duration of antihypertensive effect: 8 to 24 h

Compound: COC(=O)C1=C(C)NC(C)=C(C(=O)OCCN2CCN(c3cccc(Cl)c3)CC2)C1c1cccc(Cl)c1Cl (stereo not drawn) [Example 46]
- Change in blood pressure 1 hr. after treatment: -44 mmHg
- Change in blood pressure 5 hrs. after treatment: -43 mmHg
- Duration of antihypertensive effect: 8 to 24 h

Compound: COC(=O)C1=C(C)NC(C)=C(C(=O)OCCN2CCN(c3ccc(Cl)cc3)CC2)C1c1cccc(Cl)c1 (stereo not drawn) [Example 50, 2-[4-(4-chlorophenyl)-1-piperazinyl]ethyl methyl 4-(3-chlorophenyl)-2,6-dimethyl-1,4-dihydropyridine-3,5-dicarboxylate]
- Change in blood pressure 1 hr. after treatment: -58 mmHg
- Change in blood pressure 5 hrs. after treatment: -37 mmHg
- Duration of antihypertensive effect: 8 to 24 h

Compound: COC(=O)C1=C(C)NC(C)=C(C(=O)OCCN2CCN(c3ccccc3C)CC2)C1c1cccc([N+](=O)[O-])c1 (stereo not drawn) [Example 51, methyl 2-[4-(2-methylphenyl)-1-piperazinyl]ethyl 2,6-dimethyl-4-(3-nitrophenyl)-1,4-dihydropyridine-3,5-dicarboxylate]
- Change in blood pressure 1 hr. after treatment: -69 mmHg
- Change in blood pressure 5 hrs. after treatment: -54 mmHg
- Duration of antihypertensive effect: 8 to 24 h

Compound: COC(=O)C1=C(C)NC(C)=C(C(=O)OCCN2CCN(c3ccccc3C)CC2)C1c1cccc(Cl)c1 (stereo not drawn) [Example 52, methyl 2-[4-(2-methylphenyl)-1-piperazinyl]ethyl 4-(3-chlorophenyl)-2,6-dimethyl-1,4-dihydropyridine-3,5-dicarboxylate]
- Change in blood pressure 1 hr. after treatment: -54 mmHg
- Change in blood pressure 5 hrs. after treatment: -14 mmHg
- Duration of antihypertensive effect: ca. 8 hrs.
